# Measurements as given in ChEMBL document CHEMBL5154826, “Discovery of the Clinical Candidate MAK683: An EED-Directed, Allosteric, and Selective PRC2 Inhibitor for the Treatment of Advanced Malignancies” (J Med Chem, 2022).
# What was measured:
# [1] = Toxicity in Wistar Han rat assessed as histological changes in lung at 30 to 400 mg/kg/day,po for 15 days by Hematoxylin and eosin staining based microscopic analysis; assay type: organism-based; conditions: in vivo, 360 h, dose 30-400 mg/kg/day, time 15 day
# cells = conditions: Homo sapiens, G-401, 48 h
# Description: Inhibition of PRC2 in human G-401 cells assessed as H3K27 methylation status incubated for 48 hrs by ELISA method
# [2] = Drug metabolism in human liver microsomes assessed as CYP3A4 mediated M3 metabolite formation at 1 uM preincuabted for 5 mins followed by NADPH addition and measured after 20 mins by LC-MS/MS analysis; assay type: ADME, Microsome; conditions: 25 min
# [3] = Dose normalized AUC in Sprague-Dawley rat at 2 mg/kg, po; assay type: ADME, organism-based; conditions: in vivo
# [4] = molecular target: 3',5'-cyclic-AMP phosphodiesterase 4D (Homo sapiens, UniProt Q08499); assay: Inhibition of human Phosphodiesterase 4D
# Cytochrome P450 3A4 = Cytochrome P450 3A4 (Homo sapiens, UniProt P08684); assay: Inhibition of CYP3A4 in human liver microsomes using midazolam as substrate incubated for 10 mins in presence of NADPH by LC-MS/MS analysis; assay type: ADME, Microsome
# [5] = Drug metabolism in human liver hepatocytes assessed as CYP3A4 M3 metabolite formation at 1 uM preincuabted for 5 mins followed by NADPH addition and measured after 20 mins by LC-MS/MS analysis; assay type: ADME, cell-based, Hepatocyte
# [6] = Toxicity in Wistar Hannover rat assessed as infiltration of immune cells at 30 to 400 mg/kg/day, po for 15 days by Hematoxylin and eosin staining based microscopic analysis; assay type: organism-based; conditions: in vivo, 360 h, DDE = dose-dependent effect, dose 30-400 mg/kg/day, time 15 day
# [7] = Oral bioavailability in Sprague-Dawley rat at 2 mg/kg; assay type: ADME, organism-based; conditions: in vivo
# [8] = Lipophilicity, logD of the compound at pH 7.4 by LC with tandem MS analysis; assay type: physicochemical; conditions: buffer, read-out: logD
# [9] = Toxicity in Wistar Hannover rat assessed as degeneration of cortical adrenal gland at 30 to 400 mg/kg/day, po for 15 days by Hematoxylin and eosin staining based microscopic analysis; assay type: organism-based; conditions: in vivo, 360 h, DDE = dose-dependent effect, dose 30-400 mg/kg/day, time 15 day
# [10] = Toxicity in Wistar Han rat assessed as histological changes in liver at 30 to 400 mg/kg/day, po for 15 days by Hematoxylin and eosin staining based microscopic analysis; assay type: organism-based; conditions: in vivo, 360 h, dose 30-400 mg/kg/day, time 15 day
# [11] = molecular target: T1, Alpha-2C adrenergic receptor (Homo sapiens, UniProt P18825); assay: Inhibition of alpha2c adrenergic receptor (unknown origin)
# T1 sequence (P18825 whole entry): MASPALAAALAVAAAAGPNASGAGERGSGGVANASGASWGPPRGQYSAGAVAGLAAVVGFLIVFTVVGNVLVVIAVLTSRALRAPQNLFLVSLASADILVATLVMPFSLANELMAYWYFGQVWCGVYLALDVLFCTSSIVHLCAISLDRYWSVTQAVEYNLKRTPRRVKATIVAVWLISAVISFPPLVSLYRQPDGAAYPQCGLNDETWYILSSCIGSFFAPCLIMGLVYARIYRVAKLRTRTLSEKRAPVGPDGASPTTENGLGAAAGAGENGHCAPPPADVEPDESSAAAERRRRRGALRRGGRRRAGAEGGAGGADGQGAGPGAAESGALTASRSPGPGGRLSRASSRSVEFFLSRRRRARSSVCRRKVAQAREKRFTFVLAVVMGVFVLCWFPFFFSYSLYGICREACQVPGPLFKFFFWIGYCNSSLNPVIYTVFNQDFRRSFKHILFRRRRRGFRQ
# [12] = Permeability across apical to basolateral side in human Caco-2 cells at 10 uM incubated for 2 hrs by LC/MS/MS analysis; assay type: ADME, cell-based; conditions: Caco-2, read-out: permeability
# [13] = Toxicity in Wistar Han rat assessed as histological changes in kidney at 30 to 400 mg/kg/day, po for 15 days by Hematoxylin and eosin staining based microscopic analysis; assay type: organism-based; conditions: in vivo, 360 h, dose 30-400 mg/kg/day, time 15 day
# [14] = High throughput solubility of the compound at pH 6.8 after 16 to 24 hrs by MS/MS analysis; assay type: physicochemical; conditions: buffer, time 16-24 hrs
# [15] = Efflux ratio of apparent permeability across basolateral to apical side over apical to basolateral side in human Caco-2 cells at 10 uM incubated for 2 hrs by LC/MS/MS analysis; assay type: ADME, cell-based
# [16] = Drug metabolism in rat liver hepatocytes assessed as CYP3A4 M3 metabolite formation at 1 uM preincuabted for 5 mins followed by NADPH addition and measured after 20 mins by LC-MS/MS analysis; assay type: ADME, cell-based, Hepatocyte
# Cytochrome P450 2C9 = Cytochrome P450 2C9 (Homo sapiens, UniProt P11712); assay: Inhibition of CYP2C9 in human liver microsomes using diclofenac as substrate incubated for 10 mins in presence of NADPH by LC-MS/MS analysis; assay type: ADME, Microsome
# KARPAS-422 = assay: Antiproliferative activity against human KARPAS-422 cells expressing EZH2 mutant assessed as inhibition of cell growth after 14 days by beckman coulter counting method; assay type: functional; conditions: Homo sapiens, KARPAS-422, 336 h; time 14 day
# [17] = Inhibition of PRC2 (unknown origin) assessed as reduction in H3K27 trimethylation using H3K27Me0 peptide (21 to 44 residues) as substrate by measuring SAH formation by LC-MS analysis; design: species or system Homo sapiens
# [18] = Terminal half life in Sprague-Dawley rat at 2 mg/kg, po; assay type: ADME, organism-based; conditions: in vivo, read-out: beta t1/2 (converted)
# [19] = Drug metabolism in bile duct cannulated Wistar Han rat assessed as unmodified compound recovery in bile at 3 mg/kg, iv after 8 hrs by LC-MS/MS analysis; assay type: ADME, organism-based; conditions: read-out: Drug metabolism
# Cytochrome P450 2D6 = Cytochrome P450 2D6 (Homo sapiens, UniProt P10635); assay: Inhibition of CYP2D6 in human liver microsomes using bufuralol as substrate incubated for 10 mins in presence of NADPH by LC-MS/MS analysis; assay type: ADME, Microsome
# [20] = molecular target: T2, Alpha-2A adrenergic receptor (Homo sapiens, UniProt P08913); assay: Antagonist activity against alpha2a adrenergic receptor (unknown origin); assay type: functional
# T2 sequence (P08913 whole entry): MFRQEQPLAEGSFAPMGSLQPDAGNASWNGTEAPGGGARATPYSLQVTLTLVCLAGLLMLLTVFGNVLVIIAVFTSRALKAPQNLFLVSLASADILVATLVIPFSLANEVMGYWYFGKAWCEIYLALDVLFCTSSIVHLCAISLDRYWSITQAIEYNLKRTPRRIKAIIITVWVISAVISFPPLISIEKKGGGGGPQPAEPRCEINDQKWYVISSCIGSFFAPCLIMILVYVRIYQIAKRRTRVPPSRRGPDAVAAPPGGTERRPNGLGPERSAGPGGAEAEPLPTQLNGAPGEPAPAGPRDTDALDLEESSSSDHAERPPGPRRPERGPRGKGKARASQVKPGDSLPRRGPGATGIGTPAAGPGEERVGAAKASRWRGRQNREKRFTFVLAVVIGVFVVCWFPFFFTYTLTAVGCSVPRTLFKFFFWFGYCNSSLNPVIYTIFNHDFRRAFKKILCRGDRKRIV
# [21] = Drug metabolism in rat liver microsomes assessed as CYP3A4 mediated M3 metabolite formation at 1 uM preincuabted for 5 mins followed by NADPH addition and measured after 20 mins by LC-MS/MS analysis; assay type: ADME, Microsome; conditions: 25 min
# [22] = Drug metabolism in bile duct cannulated Wistar Han rat assessed as unmodified compound recovery in urine at 3 mg/kg, iv after 8 hrs by LC-MS/MS analysis; assay type: ADME, organism-based; conditions: read-out: Drug metabolism
# Sequence of Cytochrome P450 2D6 (P10635 whole entry): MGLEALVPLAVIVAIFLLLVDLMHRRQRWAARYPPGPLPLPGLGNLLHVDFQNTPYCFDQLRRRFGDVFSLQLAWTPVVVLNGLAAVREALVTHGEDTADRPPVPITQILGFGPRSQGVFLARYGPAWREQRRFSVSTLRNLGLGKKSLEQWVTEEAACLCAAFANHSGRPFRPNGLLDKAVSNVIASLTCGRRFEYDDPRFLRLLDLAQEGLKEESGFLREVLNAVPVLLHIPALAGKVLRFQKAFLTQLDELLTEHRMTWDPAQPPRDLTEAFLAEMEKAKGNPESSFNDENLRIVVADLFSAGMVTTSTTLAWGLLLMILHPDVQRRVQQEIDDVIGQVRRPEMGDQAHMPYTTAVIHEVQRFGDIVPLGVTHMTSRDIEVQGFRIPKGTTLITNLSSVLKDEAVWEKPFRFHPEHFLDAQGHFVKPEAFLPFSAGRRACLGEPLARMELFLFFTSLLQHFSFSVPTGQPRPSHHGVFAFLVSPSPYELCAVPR
# Sequence of 3',5'-cyclic-AMP phosphodiesterase 4D (Q08499 whole entry): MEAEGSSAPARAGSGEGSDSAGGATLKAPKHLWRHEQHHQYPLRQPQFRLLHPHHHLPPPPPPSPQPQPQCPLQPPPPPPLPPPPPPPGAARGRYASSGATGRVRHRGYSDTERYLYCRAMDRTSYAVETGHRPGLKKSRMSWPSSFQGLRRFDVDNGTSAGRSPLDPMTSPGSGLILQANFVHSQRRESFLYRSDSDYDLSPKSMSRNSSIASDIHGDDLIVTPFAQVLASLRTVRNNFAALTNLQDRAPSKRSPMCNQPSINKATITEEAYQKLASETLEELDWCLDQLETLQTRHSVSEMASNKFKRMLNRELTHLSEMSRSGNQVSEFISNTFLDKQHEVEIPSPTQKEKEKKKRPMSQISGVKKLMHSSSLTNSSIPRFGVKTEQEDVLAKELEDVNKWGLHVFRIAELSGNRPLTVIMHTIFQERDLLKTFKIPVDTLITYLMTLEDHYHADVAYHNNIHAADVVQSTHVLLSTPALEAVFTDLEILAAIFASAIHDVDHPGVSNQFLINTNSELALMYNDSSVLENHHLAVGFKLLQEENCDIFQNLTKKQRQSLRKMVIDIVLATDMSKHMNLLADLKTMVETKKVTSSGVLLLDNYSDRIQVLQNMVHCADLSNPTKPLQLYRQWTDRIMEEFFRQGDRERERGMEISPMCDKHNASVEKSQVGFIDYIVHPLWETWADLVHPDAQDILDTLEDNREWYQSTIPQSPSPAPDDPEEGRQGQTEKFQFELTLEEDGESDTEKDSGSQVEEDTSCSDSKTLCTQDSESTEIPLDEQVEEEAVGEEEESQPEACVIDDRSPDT
# Sequence of Cytochrome P450 2C9 (P11712 whole entry): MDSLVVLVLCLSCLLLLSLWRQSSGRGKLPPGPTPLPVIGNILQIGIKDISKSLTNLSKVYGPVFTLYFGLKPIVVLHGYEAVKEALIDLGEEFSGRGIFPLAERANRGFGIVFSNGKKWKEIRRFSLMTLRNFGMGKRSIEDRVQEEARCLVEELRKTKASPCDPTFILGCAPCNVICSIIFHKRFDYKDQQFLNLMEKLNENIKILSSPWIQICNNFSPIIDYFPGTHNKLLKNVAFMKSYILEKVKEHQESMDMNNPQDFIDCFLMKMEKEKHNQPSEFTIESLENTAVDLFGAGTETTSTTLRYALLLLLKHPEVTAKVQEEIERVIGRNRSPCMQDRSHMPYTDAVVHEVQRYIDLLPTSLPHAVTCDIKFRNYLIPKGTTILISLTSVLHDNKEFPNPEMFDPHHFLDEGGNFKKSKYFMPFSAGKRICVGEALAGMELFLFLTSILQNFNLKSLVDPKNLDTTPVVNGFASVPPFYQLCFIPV
# Sequence of Cytochrome P450 3A4 (P08684 whole entry): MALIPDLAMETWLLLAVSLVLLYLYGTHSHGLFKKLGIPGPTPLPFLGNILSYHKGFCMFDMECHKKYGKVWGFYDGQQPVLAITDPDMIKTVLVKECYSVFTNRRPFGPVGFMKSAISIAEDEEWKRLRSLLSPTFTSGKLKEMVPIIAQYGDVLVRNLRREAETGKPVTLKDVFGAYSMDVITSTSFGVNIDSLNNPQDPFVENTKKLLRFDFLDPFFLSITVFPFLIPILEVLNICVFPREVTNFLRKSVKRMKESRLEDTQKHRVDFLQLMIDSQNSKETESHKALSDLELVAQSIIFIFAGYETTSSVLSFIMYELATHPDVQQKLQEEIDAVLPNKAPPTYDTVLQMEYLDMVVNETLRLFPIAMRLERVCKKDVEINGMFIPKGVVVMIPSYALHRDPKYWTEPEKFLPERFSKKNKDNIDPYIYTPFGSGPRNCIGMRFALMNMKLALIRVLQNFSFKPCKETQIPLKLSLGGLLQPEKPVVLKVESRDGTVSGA
compound,measurement,setting,value
CS(=O)(=O)c1ccc(-c2cnc(NCc3ccco3)n3cnnc23)cc1,Activity,[1],Non-Toxic
same,IC50,cells,0.22 µM
same,Drug metabolism,[2],Metabolite_Detected
same,AUC/dose,[3],1948 nM·h
same,IC50,[4],20 µM
same,IC50,Cytochrome P450 3A4,> 50 µM
same,Drug metabolism,[5],Metabolite_Detected
same,Activity,[6],Dde
same,bioavailability,[7],62%
same,logD,[8],1.8
same,Activity,[9],Dde
same,Activity,[10],Non-Toxic
same,IC50,[11],14 µM
same,"Papp A→B at 2 h, 10 µM",[12],3 ×10⁻⁶ cm/s
same,Activity,[13],Non-Toxic
same,solubility,[14],12 µM
same,"efflux ratio at 2 h, 10 µM",[15],7.6
same,Drug metabolism,[16],Metabolite_Detected
same,IC50,Cytochrome P450 2C9,> 50 µM
same,GI50,KARPAS-422,0.08 µM
same,IC50,[17],0.022 µM
same,half-life,[18],1.6 h
same,dose excreted at 8 h,[19],0.5%
same,IC50,Cytochrome P450 2D6,> 50 µM
same,IC50,[20],15 µM
same,Drug metabolism,[21],Metabolite_Detected
same,dose excreted at 8 h,[22],0.9%
